Measurements from patent publication US10059657B2, “Class-and isoform-specific HDAC inhibitors and uses thereof” (priority 2009, dated 2018).

Assays:
[1] = target: T1, H976Y HDAC4 gain of function mutant (Homo sapiens, UniProt P56524, H976Y); conditions: H976Y mutant compared with HDAC4; cited from earlier work
T1 sequence (P56524 1-1084 H976Y): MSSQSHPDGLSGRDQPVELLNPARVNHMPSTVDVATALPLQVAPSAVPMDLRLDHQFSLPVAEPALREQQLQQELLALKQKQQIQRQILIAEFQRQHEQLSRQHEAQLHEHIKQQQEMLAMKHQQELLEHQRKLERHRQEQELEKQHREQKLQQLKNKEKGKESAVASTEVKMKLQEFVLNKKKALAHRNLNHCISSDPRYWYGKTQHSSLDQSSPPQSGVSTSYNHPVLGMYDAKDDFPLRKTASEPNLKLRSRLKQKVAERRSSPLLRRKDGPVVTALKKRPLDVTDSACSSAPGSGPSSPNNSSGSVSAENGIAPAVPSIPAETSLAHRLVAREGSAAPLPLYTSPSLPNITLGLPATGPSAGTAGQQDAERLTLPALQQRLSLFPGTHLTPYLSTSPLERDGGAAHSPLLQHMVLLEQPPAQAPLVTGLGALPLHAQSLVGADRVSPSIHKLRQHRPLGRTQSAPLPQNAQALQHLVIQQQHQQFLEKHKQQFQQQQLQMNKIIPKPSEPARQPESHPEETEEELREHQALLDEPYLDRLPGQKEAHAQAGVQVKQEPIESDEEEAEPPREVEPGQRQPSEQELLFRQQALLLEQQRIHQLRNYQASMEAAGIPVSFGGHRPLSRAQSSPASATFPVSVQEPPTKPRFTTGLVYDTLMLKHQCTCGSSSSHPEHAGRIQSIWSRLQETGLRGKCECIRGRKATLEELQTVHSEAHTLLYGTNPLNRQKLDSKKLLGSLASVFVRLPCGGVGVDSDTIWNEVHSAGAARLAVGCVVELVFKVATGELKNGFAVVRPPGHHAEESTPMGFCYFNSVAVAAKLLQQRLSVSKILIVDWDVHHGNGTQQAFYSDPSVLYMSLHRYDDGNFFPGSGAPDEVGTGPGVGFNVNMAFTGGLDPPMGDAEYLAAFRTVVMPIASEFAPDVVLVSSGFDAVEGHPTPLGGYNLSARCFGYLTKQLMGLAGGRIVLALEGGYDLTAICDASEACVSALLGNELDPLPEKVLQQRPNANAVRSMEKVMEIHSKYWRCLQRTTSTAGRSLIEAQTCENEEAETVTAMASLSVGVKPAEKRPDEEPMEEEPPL

HDAC1-9 = assay: Biochemical HDAC assay, profiling against HDAC1-9; design: species or system human; conditions: dose-response, mean of three replicates
Protocol: The inhibitory effect of compounds on HDAC1-9 function was determined in vitro using an optimized homogenous assay performed in 384-well plate format. […] Reactions are performed in assay buffer (50 mM HEPES, 100 mM KCl, 0.001% Tween-20, 0.05% BSA, 200 μM TCEP, pH 7.4) and followed for fluorigenic release of 7-amino-4-methylcoumarin from substrate upon deacetylase and trypsin enzymatic activity. Fluorescence measurements are obtained approximately every five minutes using a multilabel plate reader and plate-stacker (Envision; Perkin-Elmer). Data are analyzed on a plate-by-plate basis for the linear range of fluorescence over time. The first derivative of data obtained from the plate capture corresponding to the mid-linear range is imported into analytical software and annotated with well identity and compound concentration (Spotfire DecisionSite). Replicate experimental data from incubations with inhibitor are normalized to control, solvent-only wells.
Data are analyzed by logistic regression with determination of IC50 and standard deviation (Spotfire DecisionSite and GraphPad Prism). Calculation of Ki is determined using a derivation of the standard formula Ki=[Inhibitor]/((VON;)*(1+S/Km))−[Substrate]/Km)−1. […]

Sirtuin2 = target: T2, Sirtuin2 (Homo sapiens, UniProt Q8IXJ6); assay: Sirtuin activity assay, Sirtuin2; type: biochemical; conditions: highest testing concentration
T2 sequence (Q8IXJ6 1-389): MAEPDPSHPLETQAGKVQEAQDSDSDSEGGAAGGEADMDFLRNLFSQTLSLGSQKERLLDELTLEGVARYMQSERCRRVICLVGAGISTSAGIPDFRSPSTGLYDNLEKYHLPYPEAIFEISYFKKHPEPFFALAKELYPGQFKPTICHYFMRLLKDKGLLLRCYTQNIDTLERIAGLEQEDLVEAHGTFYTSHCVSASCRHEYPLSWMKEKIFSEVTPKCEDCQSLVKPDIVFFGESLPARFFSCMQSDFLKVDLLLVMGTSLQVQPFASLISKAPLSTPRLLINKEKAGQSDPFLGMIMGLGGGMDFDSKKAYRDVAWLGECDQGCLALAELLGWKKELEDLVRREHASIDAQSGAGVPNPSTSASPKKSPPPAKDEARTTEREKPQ
Protocol: (§1) A series of compound dilutions (10 fold higher than final concentrations) are made in 10% DMSO in HDAC assay buffer. 5 μl of each dilution is added to 50 μl of the reaction mixture so that the final concentration of DMSO is 1% in all of reactions.
(§2) All of the enzymatic reactions were conducted in duplicate at room temperature for 3 hours in a 50 μl mixture containing HDAC assay buffer, 5 μg BSA, 100 μM NAD^+, 10 μM HDAC substrate 1, a sirtuin enzyme, and the test compound.
(§3) After enzymatic reactions, 50 μl of 2×HDAC Developer was added to each well and the plate was incubated at room temperature for an additional 20 minutes. Fluorescence intensity was measured at an excitation of 360 nm and an emission of 460 nm using a BioTek Synergy™ 2 microplate reader.
(§4) Sirtuin activity assays were performed in duplicates at each concentration. The fluorescent intensity data were analyzed using the computer software, Graphpad Prism. […] The percent activity in the presence of each compound was calculated according to the following equation: % activity=(F−Fb)/(Ft−Fb), where F=the fluorescent intensity in the presence of the compound, Fb=the fluorescent intensity in the absence of the sirtuin, and Ft=the fluorescent intensity in the absence of the compound. […]
(§5) If the IC50 value is not available, the % inhibition of the compound at the highest testing concentration was calculated.

Sirtuin3 = target: T3, Sirtuin3 (Homo sapiens, UniProt Q9NTG7); assay: Sirtuin activity assay, Sirtuin3; type: biochemical; conditions: highest testing concentration
T3 sequence (Q9NTG7 1-399): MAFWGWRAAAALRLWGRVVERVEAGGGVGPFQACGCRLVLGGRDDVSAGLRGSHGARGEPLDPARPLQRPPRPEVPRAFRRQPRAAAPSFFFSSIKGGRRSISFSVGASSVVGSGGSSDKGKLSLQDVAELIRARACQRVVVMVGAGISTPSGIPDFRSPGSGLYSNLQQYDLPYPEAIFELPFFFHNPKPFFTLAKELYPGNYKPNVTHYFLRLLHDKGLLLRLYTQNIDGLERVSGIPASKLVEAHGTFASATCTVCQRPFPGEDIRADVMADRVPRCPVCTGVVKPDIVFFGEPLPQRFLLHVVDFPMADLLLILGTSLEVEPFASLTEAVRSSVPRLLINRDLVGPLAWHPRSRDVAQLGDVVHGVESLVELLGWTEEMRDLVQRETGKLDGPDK
Protocol: as §1, §2, §3, §4, §5

Compound: O=C(/C=C/c1ccc(CN(CCO)CCc2c[nH]c3ccccc23)cc1)NO [LAQ-824]
- increased affinity for the H976Y HDAC4 gain of function mutant [1]: 100 fold

Compound: O=C(CCCCCCC(=O)Nc1ccccc1)NO [SAHA]
- inhibition of HDAC1-9, isoform selectivity profile (HDAC1-9): unexpected selectivity

Compound: O=C(/C=C/c1ccc(C(=O)N/N=C/c2ccc(O)c(O)c2O)cc1)NO [pandacostat, (E)-N-hydroxy-3-(4-((E)-2-(2,3,4-trihydroxybenzylidene) hydrazinecarbonyl)phenyl) acrylamide]
- inhibition at 100 µM (Sirtuin2): ~62%
- inhibition at 100 µM (Sirtuin3): ~57%

Compound: trichostatin A [TSA]
- inhibition of HDAC1-9, isoform selectivity profile (HDAC1-9): unexpected selectivity
